Experimental data from US20150224058A1, “FORMULATIONS OF FLIBANSERIN” (Sprout Pharmaceuticals Inc., priority 2008, published 2015).
In brackets after ≈: the same amount, converted by molar mass.

Assay: Solubility of flibanserin in aqueous media
Assay type: physicochemical
Settings: aqueous buffer; in phosphate buffer at pH 5.0
From the text: This marginal solubility at higher pH-values of flibanserin makes it difficult to develop extended release dosage forms or in some case even immediate release dosage forms for the following reasons. There is a natural pH gradient from the acidity of the stomach where the pH of physiological fluids are typically around 1-2, through the weakly acidic duodenum to the virtually neutral environment of the small intestine where the pH is in the range of 5-8. There are however cases of non-acidic stomach conditions due to either low production of hydrochloric acid caused by the physiology of the patients (this percentage increases form about 2-10% in young patients to about 10 to 40% in elderly patients) or by coadministration of antacids such as basic agents, H2-blockers or proton pump inhibitors. In those cases dissolution of even immediate release formulations (IRE) may be incomplete in the stomach and absorption might be incomplete or at least delayed.
Within the meaning of the present invention, supersaturation occurs if the active ingredient remains in dissolved status at concentrations far above its saturation solubility in the same aqueous system. […]

O=c1[nH]c2ccccc2n1CCN1CCN(c2cccc(C(F)(F)F)c2)CC1 [Flibanserin, 1,3-dihydro-1-[2-[4-[3-(trifluoromethyl)phenyl]-1-piperazinyl]ethyl]-2H-benzimidazole-2-one]
solubility: 10 µg/mL (≈ 25.6 µM)
